Broadly, the IC50 is the concentration that gives 50% inhibition.

Structures are written as SMILES.

One test has as its system monoubiquitinated PCNA. The test can be described thus: AlphaLISA assay measuring monoubiquitinated PCNA in MDA-MB-436. In kind it is cell-based. The settings on record: Homo sapiens, read-out: Alpha LISA IC50. The text has this:
Table 1 also indicates IC50 values for exemplary compounds in an AlphaLISA assay measuring monoubiquitinated PCNA in a BRCA1 mutant cell line (MDA-MB-436; column 7).
A general note: In Alpha technology, singlet oxygen from a donor bead excites a nearby acceptor bead.

In test [1] the test system is HCC1954 (BRCA1 WT) cell line. The test can be described thus: Viability assay in BRCA1 WT cell line HCC1954. It counts as cell-based. Particulars: Homo sapiens, read-out: HCC 1954 IC50 rel IC50. The text has this:
(§1) Table 1 also indicates IC50 values in a viability assay for a non-isogenic pair of BRCA1 mutant (column 5—MDA-MB-436) and BRCA1 WT (column 6—HCC1954) cell lines. These values indicate the effect of treatment with compound on cell survival.

The target of another test is USP1-UAF1 (Homo sapiens, UniProt O94782). The test can be described thus: Ubiquitin Rhodamine assay for USP1-UAF1 activity. It counts as biochemical. The procedure: Certain compounds of the disclosure were assessed for USP1-UAF1 activity in a Ubiquitin Rhodamine assay as described in Example 135.
USP1-UAF1, sequence (O94782 whole entry): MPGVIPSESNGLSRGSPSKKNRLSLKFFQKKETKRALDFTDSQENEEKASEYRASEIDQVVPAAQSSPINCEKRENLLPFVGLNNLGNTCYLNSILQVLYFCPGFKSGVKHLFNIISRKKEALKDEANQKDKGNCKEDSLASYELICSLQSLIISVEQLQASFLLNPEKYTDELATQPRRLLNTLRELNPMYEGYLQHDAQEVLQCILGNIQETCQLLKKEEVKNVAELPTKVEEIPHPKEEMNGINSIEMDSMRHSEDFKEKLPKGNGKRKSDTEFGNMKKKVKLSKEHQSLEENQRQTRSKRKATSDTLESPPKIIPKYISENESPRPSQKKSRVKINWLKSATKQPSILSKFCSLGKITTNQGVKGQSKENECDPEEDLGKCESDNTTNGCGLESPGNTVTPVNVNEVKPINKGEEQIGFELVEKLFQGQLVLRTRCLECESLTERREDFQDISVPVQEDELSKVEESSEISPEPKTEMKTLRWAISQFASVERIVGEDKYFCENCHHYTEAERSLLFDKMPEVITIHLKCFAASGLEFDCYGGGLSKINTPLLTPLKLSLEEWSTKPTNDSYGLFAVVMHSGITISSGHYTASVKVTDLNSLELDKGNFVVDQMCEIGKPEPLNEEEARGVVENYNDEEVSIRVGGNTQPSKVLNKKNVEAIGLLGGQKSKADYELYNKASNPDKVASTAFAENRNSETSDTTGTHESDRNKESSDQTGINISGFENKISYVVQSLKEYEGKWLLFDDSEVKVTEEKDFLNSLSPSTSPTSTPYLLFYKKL
USP1-UAF1, sequence (Q8TAF3 whole entry partner): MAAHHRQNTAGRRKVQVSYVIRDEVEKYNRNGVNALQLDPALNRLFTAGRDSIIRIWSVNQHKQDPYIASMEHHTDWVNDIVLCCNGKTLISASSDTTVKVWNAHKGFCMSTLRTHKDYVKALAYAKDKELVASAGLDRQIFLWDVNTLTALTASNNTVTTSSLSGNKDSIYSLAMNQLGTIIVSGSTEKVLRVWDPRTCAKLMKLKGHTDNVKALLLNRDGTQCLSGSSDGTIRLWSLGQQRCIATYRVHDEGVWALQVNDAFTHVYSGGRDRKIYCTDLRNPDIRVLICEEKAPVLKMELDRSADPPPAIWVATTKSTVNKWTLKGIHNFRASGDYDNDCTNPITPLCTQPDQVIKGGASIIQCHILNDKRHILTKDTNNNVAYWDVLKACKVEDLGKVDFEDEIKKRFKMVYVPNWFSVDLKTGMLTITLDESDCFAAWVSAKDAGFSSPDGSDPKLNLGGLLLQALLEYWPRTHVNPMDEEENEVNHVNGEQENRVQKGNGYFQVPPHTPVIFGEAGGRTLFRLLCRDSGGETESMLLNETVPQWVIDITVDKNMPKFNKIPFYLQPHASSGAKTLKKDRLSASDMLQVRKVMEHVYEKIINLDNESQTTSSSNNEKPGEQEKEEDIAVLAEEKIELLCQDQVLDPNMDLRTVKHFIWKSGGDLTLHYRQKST
Test [2] concerns MDA-MB-436 (BRCA1 mutant) cell line. The test is described as follows: Viability assay in BRCA1 mutant cell line MDA-MB-436. Particulars: Homo sapiens, MDA-MB-436, viability, BRCA1 mutant MDA-MB-436; read-out: MDA-MB-436 rel IC50. In kind it is cell-based.
Excerpt: as §1

`COc1ncnc(C2CC2)c1-c1ncc2nn(CC(F)(F)F)c(Cc3ccc(-c4nc(C(F)(F)F)cn4C)cc3)c2n1` [Compound 131, 5-(4-cyclopropyl-6-methoxy-pyrimidin-5-yl)-3-[[4-[1-methyl-4-(trifluoromethyl)imidazol-2-yl]phenyl]methyl]-2-(2,2,2-trifluoroethyl)pyrazolo[4,3-d]pyrimidine]: the IC50 was less than 100 nM with monoubiquitinated PCNA, not below 10000 nM in test [1], 100 to 10000 nM on USP1-UAF1 and less than 100 nM in test [2].

For `COc1ncnc(C2CC2)c1-c1ncc2[nH]cc(Cc3ccc(-c4nc(C(F)(F)F)cn4C)c(C)c3)c2n1` [Compound 113], the IC50 with monoubiquitinated PCNA is less than 100 nM; in test [1], not below 10000 nM; at USP1-UAF1 it was less than 30 nM; in test [2], less than 100 nM.

Regarding `COc1ncccc1-c1ncc2[nH]cc(Cc3ccc(-c4nc(C(F)(F)F)cn4C)cc3)c2n1` [Compound 11, 2-(2-methoxy-3-pyridyl)-7-[[4-[1-methyl-4-(trifluoromethyl)imidazol-2-yl]phenyl]methyl]-5H-pyrrolo[3,2-d]pyrimidine], the IC50 was 100 to 250 nM with monoubiquitinated PCNA, not below 10000 nM in test [1], 30 to 100 nM at USP1-UAF1 and 250 to 10000 nM in test [2].

On to `COc1ncnc(C2CC2)c1-c1ncc2[nH]nc(Cc3ccc(-c4nc(C(F)(F)F)cn4C)cc3C)c2n1` [Compound 196], for which the IC50 with monoubiquitinated PCNA was less than 100 nM; in test [1], not below 10000 nM; against USP1-UAF1, less than 30 nM; in test [2], less than 100 nM.

For `C[C@H](Oc1ncccc1-c1ncc2[nH]cc(Cc3ccc(-c4nc(C(F)(F)F)cn4C)cc3)c2n1)C(F)(F)F` (single isomer, unassigned) [Compound 51], the IC50 in the test on monoubiquitinated PCNA is less than 100 nM; in test [1], 250 to 10000 nM; at USP1-UAF1 it was less than 30 nM; in test [2] it was less than 100 nM.

In the case of `Cn1cc(C(F)(F)F)nc1-c1ccc(Cc2n[nH]c3cnc(-c4c(OC(F)F)ncnc4C4CC4)nc23)cc1` [Compound 185, 5-[4-cyclopropyl-6-(difluoromethoxy)pyrimidin-5-yl]-3-[[4-[1-methyl-4-(trifluoromethyl)imidazol-2-yl]phenyl]methyl]-1H-pyrazolo[4,3-d]pyrimidine], the IC50 in the test with monoubiquitinated PCNA was less than 100 nM; in test [1], not below 10000 nM; against USP1-UAF1, less than 30 nM; in test [2], less than 100 nM.

As to `COc1ncnc(C2CC2)c1-c1ncc2[nH]cc(Cc3ccc(-c4nc(C(F)(F)F)cn4C4CN(C)C4)cc3)c2n1` [Compound 18, 2-(4-cyclopropyl-6-methoxypyrimidin-5-yl)-7-(4-(1-(1-methylazetidin-3-yl)-4-(trifluoromethyl)-1H-imidazol-2-yl)benzyl)-5H-pyrrolo[3,2-d]pyrimidine], the IC50 is 100 to 250 nM with monoubiquitinated PCNA, not below 10000 nM in test [1], 100 to 10000 nM on USP1-UAF1 and 100 to 250 nM in test [2].

In the case of `COc1ncnc(C2CC2)c1-c1ncc2c(n1)c(Cc1ccc(-c3nc(C(F)(F)F)cn3C)cc1)nn2C` [Compound 26, 5-(4-cyclopropyl-6-methoxy-pyrimidin-5-yl)-1-methyl-3-[[4-[1-methyl-4-(trifluoromethyl)imidazol-2-yl]phenyl]methyl]pyrazolo[4,3-d]pyrimidine], the IC50 is less than 100 nM in the test with monoubiquitinated PCNA, not below 10000 nM in test [1] and less than 100 nM in test [2].

Consider `COc1nc(C)nc(C2CC2)c1-c1ncc2[nH]nc(Cc3ccc(-c4nc(C(F)(F)F)cn4C)cc3)c2n1` [Compound 184, 5-(4-cyclopropyl-6-methoxy-2-methylpyrimidin-5-yl)-3-(4-(1-methyl-4-(trifluoromethyl)-1H-imidazol-2-yl)benzyl)-1H-pyrazolo[4,3-d]pyrimidine], for which the IC50 in the test on monoubiquitinated PCNA was less than 100 nM; in test [1], 250 to 10000 nM; against USP1-UAF1, 30 to 100 nM; in test [2] it was less than 100 nM.

For the compound `COc1ncnc(C(C)(C)C)c1-c1ncc2c(n1)c(Cc1ccc(-c3nc(C(F)(F)F)cn3C)cc1)nn2C` [Compound 96], the concentration for half-maximal inhibition (IC50) with monoubiquitinated PCNA was 100 to 250 nM; in test [1], not below 10000 nM; at USP1-UAF1, 30 to 100 nM; in test [2], 100 to 250 nM.

For `COc1ncnc(C2CC2)c1-c1ncc2[nH]cc(Cc3ccc(-c4nc(C(F)(F)F)cn4C4CC4)cc3)c2n1` [Compound 81, 2-(4-cyclopropyl-6-methoxy-pyrimidin-5-yl)-7-[[4-[1-cyclopropyl-4-(trifluoromethyl)imidazol-2-yl]phenyl]methyl]-5H-pyrrolo[3,2-d]pyrimidine], the IC50 in the test with monoubiquitinated PCNA is less than 100 nM; in test [1] it was 250 to 10000 nM; against USP1-UAF1 it was less than 30 nM; in test [2], less than 100 nM.

As for `COc1ncnc(C2CC2)c1-c1ncc2[nH]c(F)c(Cc3ccc(-c4nc(C(F)(F)F)cn4C)cc3)c2n1` [Compound 181, 2-(4-cyclopropyl-6-methoxy-pyrimidin-5-yl)-6-fluoro-7-[[4-[1-methyl-4-(trifluoromethyl)imidazol-2-yl]phenyl]methyl]-5H-pyrrolo[3,2-d]pyrimidine], the IC50 in the test with monoubiquitinated PCNA was less than 100 nM; in test [1], not below 10000 nM; against USP1-UAF1, less than 30 nM; in test [2], less than 100 nM.

Turning to `COc1ncnc(C2CC2)c1-c1cc2c(Cc3ccc(-c4nc(C(F)(F)F)cn4C)cc3)n[nH]c2cn1` [Compound 177, 5-(4-cyclopropyl-6-methoxypyrimidin-5-yl)-3-(4-(1-methyl-4-(trifluoromethyl)-1H-imidazol-2-yl)benzyl)-1H-pyrazolo[3,4-c]pyridine], the 50% inhibitory concentration (IC50) in the test on monoubiquitinated PCNA was less than 100 nM; in test [1], not below 10000 nM; on USP1-UAF1, less than 30 nM; in test [2], less than 100 nM.

With `COc1ncnc(C2CC2)c1-c1nc(C(F)(F)F)c2[nH]nc(Cc3ccc(-c4nc(C(F)(F)F)cn4C)cc3)c2n1` [Compound 114, 5-(4-cyclopropyl-6-methoxy-pyrimidin-5-yl)-3-[[4-[1-methyl-4-(trifluoromethyl)imidazol-2-yl]phenyl]methyl]-7-(trifluoromethyl)-1H-pyrazolo[4,3-d]pyrimidine], the IC50 with monoubiquitinated PCNA is less than 100 nM; in test [1], not below 10000 nM; on USP1-UAF1, less than 30 nM; in test [2] it was less than 100 nM.

In the case of `CNCc1[nH]c2cnc(-c3cccnc3C3CC3)nc2c1Cc1ccc(-c2nc(C(F)(F)F)cn2C)cc1` [Compound 178, 1-[2-(2-cyclopropyl-3-pyridyl)-7-[[4-[1-methyl-4-(trifluoromethyl)imidazol-2-yl]phenyl]methyl]-5H-pyrrolo[3,2-d]pyrimidin-6-yl]-N-methyl-methanamine], the IC50 in the test with monoubiquitinated PCNA is less than 100 nM; in test [1], 250 to 10000 nM; on USP1-UAF1, 30 to 100 nM; in test [2], less than 100 nM.

As to `COc1ncnc(C2CC2)c1-c1cc2c(Oc3ccc(-c4nc(C(F)(F)F)cn4C)cc3)c[nH]c2cn1` [Compound 167, 5-(4-cyclopropyl-6-methoxy-pyrimidin-5-yl)-3-[4-[1-methyl-4-(trifluoromethyl)imidazol-2-yl]phenoxy]-1H-pyrrolo[2,3-c]pyridine], the IC50 is less than 100 nM in the test on monoubiquitinated PCNA, not below 10000 nM in test [1], 30 to 100 nM against USP1-UAF1 and less than 100 nM in test [2].

For `COc1cccc(OC)c1-c1ncc2[nH]nc(Cc3ccc(-c4nc(C(F)(F)F)cn4C)cc3)c2n1` [Compound 136], the concentration for half-maximal inhibition (IC50) with monoubiquitinated PCNA was 250 to 10000 nM; in test [1], not below 10000 nM; against USP1-UAF1, less than 30 nM; in test [2], 100 to 250 nM.

Regarding `COc1ncnc(C2CC2)c1-c1ncc2[nH]cc(Cc3ccc(-c4nc(C#N)cn4C)cc3)c2n1` [Compound 31, 2-[4-[[2-(4-cyclopropyl-6-methoxy-pyrimidin-5-yl)-5H-pyrrolo[3,2-d]pyrimidin-7-yl]methyl]phenyl]-1-methyl-imidazole-4-carbonitrile], the IC50 with monoubiquitinated PCNA was 250 to 10000 nM; in test [1] it was not below 10000 nM; against USP1-UAF1, 100 to 10000 nM; in test [2], 250 to 10000 nM.

As to `COc1ncnc(C2CC2)c1-c1ncc2[nH]nc(Cc3ccc(-c4nc(C(F)(F)F)cn4C)cc3)c2n1` [Compound 5, 5-(4-cyclopropyl-6-methoxy-pyrimidin-5-yl)-3-[[4-[1-methyl-4-(trifluoromethyl)imidazol-2-yl]phenyl]methyl]-1H-pyrazolo[4,3-d]pyrimidine], the results for the half-inhibitory concentration (IC50) (in the test on monoubiquitinated PCNA; at USP1-UAF1; in test [2]) were less than 100 nM, less than 30 nM and less than 100 nM, respectively.

For `COc1ncnc(C2CC2)c1-c1ncc2nn(C)c(Cc3ccc(-c4nc(C(F)(F)F)cn4C)cc3)c2n1` [Compound 24, 5-(4-cyclopropyl-6-methoxy-pyrimidin-5-yl)-2-methyl-3-[[4-[1-methyl-4-(trifluoromethyl)imidazol-2-yl]phenyl]methyl]pyrazolo[4,3-d]pyrimidine], the 50% inhibitory concentration (IC50) with monoubiquitinated PCNA is 100 to 250 nM; in test [1], not below 10000 nM; in test [2] it was 250 to 10000 nM.

Regarding `Cn1cc(C(F)(F)F)nc1-c1ccc(Cc2c[nH]c3cnc(-c4c(C(F)(F)F)cnn4C)nc23)cc1` [Compound 179, 7-[[4-[1-methyl-4-(trifluoromethyl)imidazol-2-yl]phenyl]methyl]-2-[2-methyl-4-(trifluoromethyl)pyrazol-3-yl]-5H-pyrrolo[3,2-d]pyrimidine], the half-inhibitory concentration (IC50) in the test on monoubiquitinated PCNA is less than 100 nM; in test [1] it was 250 to 10000 nM; in test [2] it was less than 100 nM.

In the case of `COc1ncnc(C2CC2)c1-c1ncc2[nH]cc(Cc3ccc(-c4nc(C(F)(F)F)cn4C(C)C)cc3)c2n1` [Compound 54, 2-(4-cyclopropyl-6-methoxy-pyrimidin-5-yl)-7-[[4-[1-isopropyl-4-(trifluoromethyl)imidazol-2-yl]phenyl]methyl]-5H-pyrrolo[3,2-d]pyrimidine], the concentration for half-maximal inhibition (IC50) in the test with monoubiquitinated PCNA was less than 100 nM; against USP1-UAF1 it was less than 30 nM; in test [2] it was less than 100 nM.

These data come from patent publication US20240182481A1 (Tango Therapeutics, Inc., priority 2021, published 2024).
